The values that follow are results of earlier work, collected in US20090136550A1, “MODIFIED RELEASE FORMULATIONS OF DILTIAZEM” (Capricorn Pharma Inc., priority 2007, published 2009).

Structures can show the parent of a compound that is named as a salt.

As for `COc1ccc([C@@H]2Sc3ccccc3N(CCN(C)C)C(=O)[C@@H]2OC(C)=O)cc1` [diltiazem hydrochloride], the water solubility entry was “highly water soluble”.
